Entries after “also recorded” stand apart in the source; their conditions may differ. Where two headings read alike, the source gives them in different places.
Key:
SCD mRNA = experiment: RT-qPCR mRNA expression in dHepaRG cells; type: cell-based, human; settings: single exposure, 6, 12 and 24 h
Experimental: All treatments were performed in triplicates and every experiment was performed three times. The cells were washed twice with ice cold phosphate-buffered saline (PBS), scrapped and stored at −80 °C until use. Total RNA from cells was isolated using TriReagent according to the manufacturer’s instructions (Biotech, Prague, Czech Republic). The purified RNA was dissolved in 40 µL of diethyl pyrocarbonate (DEPC)-treated water (0.01% DEPC in HPLC water, autoclaved) and stored at −80 °C. The measurement of absorbance at 260 and 280 nm using the NanoDrop ND-1000 UV–VIS Spectrophotometer (Thermo Fisher Scientific, Pardubice, Czech Republic) was used to determine RNA yields and purity. Subsequently, the RNA (4 µg) was treated with 2 U of DNase I (New England Biolabs, Ipswich, MA, USA) in a final volume of 30 µL for 25 min at 37 °C, 1.5 µL of 0.1 M ethylenediaminetetraacetic acid was added and the DNAse was inactivated by heat (5 min at 75 °C). […] Fluorescence data were recorded at the end of each amplification step. Relative expression levels of the target genes were calculated as fold changes in triplicates for each group using the 2^−ΔΔCt method [28] by normalization to the geometric mean of the Ct values of Sdha and Ywhaz, which were used as reference genes.

dHepaRG cells [1] = experiment: MTT cell viability assay; type: cell-based, human; settings: for toxicity toward dHepaRG cells compared with cancer cells: comparison of own IC50 with previously reported IC50 values; for cell viability: 24 and 72 h, MTT method and LDH leakage
Experimental: Cryopreserved HepaRG cells were obtained from Biopredic International (Rennes, France). Undifferentiated cells were seeded according to the supplier protocols in 96-well plates for the viability assays, and in 6-well plates for the mRNA and western blot measurements. The cells were cultured for two weeks in Williams E Medium with GlutaMAX™ (Invitrogen, Paisley, UK) supplemented with 10% fetal bovine serum, 2 mM glutamine, 100 IU/mL penicillin, 100 μg/mL streptomycin, 5 μg/mL insulin, and 50 μM hydrocortisone hemisuccinate. The cells were afterwards cultured for another 2-week period in the same medium supplemented with 1.7% DMSO. The medium was replaced every 2–3 days.
In the 96-well plates, viability was evaluated using the methylthiazole-tetrazolium (MTT) colorimetric assay. After 24 and 72-h exposure, 25 μL of MTT solution (3 mg of MTT in 1 mL of phosphate buffered saline, PBS) were added to each well. The plates were incubated at 37 °C for an additional 2 h, after which the medium was removed and the formed formazan was dissolved in 50 μL of 0.08 M HCl in isopropanol during 30 min shaking. The absorbance in each well was read at 570 and 690 nm using a spectrophotometer (Tecan Infinite M200, Tecan, Männedorf, Switzerland).

HMGCS mRNA = experiment: RT-qPCR mRNA expression in dHepaRG cells; type: cell-based, human
Experimental: (§2) Three concentrations were selected for each compound (non-toxic, non-toxic/slightly toxic and toxic). The cholesterol level of the dHepaRG cells was measured after a multiple exposure of the highest non-toxic concentrations of tested compounds. […] The expression changes of genes and proteins related to cholesterol metabolism were measured in both single and multiple exposure experiments.
(§3) All treatments were performed in triplicates and every experiment was performed three times. The cells were washed twice with ice cold phosphate-buffered saline (PBS), scrapped and stored at −80 °C until use. Total RNA from cells was isolated using TriReagent according to the manufacturer’s instructions (Biotech, Prague, Czech Republic). The purified RNA was dissolved in 40 µL of diethyl pyrocarbonate (DEPC)-treated water (0.01% DEPC in HPLC water, autoclaved) and stored at −80 °C. The measurement of absorbance at 260 and 280 nm using the NanoDrop ND-1000 UV–VIS Spectrophotometer (Thermo Fisher Scientific, Pardubice, Czech Republic) was used to determine RNA yields and purity. Subsequently, the RNA (4 µg) was treated with 2 U of DNase I (New England Biolabs, Ipswich, MA, USA) in a final volume of 30 µL for 25 min at 37 °C, 1.5 µL of 0.1 M ethylenediaminetetraacetic acid was added and the DNAse was inactivated by heat (5 min at 75 °C). The solution was diluted to a concentration of 0.1 µg/µL. The DNAse treated RNA was stored at −80 °C until further analyses. The first strand cDNA was synthesized from 800 ng of total RNA and 1 µL of 50 µM random hexamers (Generi Biotech, Hradec Kralove, Czech Republic) using ProtoScript II reverse transcriptase (New England Biolabs, Ipswich, MA, USA). After the initial heat denaturation of total RNA (65 °C for 5 min), 4 µL of 5× ProtoScript II RT Reaction Buffer, 2 µL of 10× dithiothreitol (DTT), 2 µL of deoxynucleotide (dNTP) Mix 5 mM, 3.5 µL of H2O, and 0.5 µL of ProtoScript II 200 U/µL were added and mixed by pipetting. The reactions (20 µL) were incubated for 10 min at 25 °C, for 50 min at 42 °C, and for 5 min at 80 °C. The obtained cDNAs were diluted 1:6 by DEPC water. The qPCR analyses were carried out using QuantStudio 6 Flex (Applied Biosystems, Foster City, CA, USA) with SYBR green I (Xceed qPCR SG Mix, Institute of Applied Biotechnologies, Prague, Czech Republic) detection according to the manufacturer’s protocol. […] Fluorescence data were recorded at the end of each amplification step. Relative expression levels of the target genes were calculated as fold changes in triplicates for each group using the 2^−ΔΔCt method [28] by normalization to the geometric mean of the Ct values of Sdha and Ywhaz, which were used as reference genes.

dHepaRG cells [2] = experiment: ROS production (H2DCFDA probe); type: cell-based, human; settings: for lowest measured concentration leading to oxidative stress: ROS production; for ROS production: various concentrations, 1, 6, 12 and 24 h, H2-DCFDA probe
Experimental: The production of reactive oxygen species (ROS) was measured using 2′,7′-dichlorofluorescin diacetate probe (H2DCFDA). The cells were preincubated with 10 µM H2DCFDA for 30 min in the dark. Afterwards, the cells were washed with PBS and sesquiterpenes were added to a Hank’s Balanced Salt Solution (HBSS) buffer. Fluorescence was measured after 1, 6, 12, and 24 h with excitation and emission wavelengths of 490 nm and 530 nm, respectively, using the Tecan Infinite M200. Hydrogen peroxide (300 µM) served as a positive control.

CYP19A1 mRNA = experiment: RT-qPCR mRNA expression in dHepaRG cells; type: cell-based, human
Experimental: as §2, §3

HepG2 = settings: HepG2, 24 h, read-out: Previously Reported IC50 Values (24 h), cited from earlier work
ICAM-1 mRNA = experiment: RT-qPCR mRNA expression in dHepaRG cells; type: cell-based, human; settings: the highest concentration
Experimental: (§4) Three concentrations were selected for each compound (non-toxic, non-toxic/slightly toxic and toxic). […] The expression changes of genes and proteins related to cholesterol metabolism were measured in both single and multiple exposure experiments.
(§5) All treatments were performed in triplicates and every experiment was performed three times. The cells were washed twice with ice cold phosphate-buffered saline (PBS), scrapped and stored at −80 °C until use. Total RNA from cells was isolated using TriReagent according to the manufacturer’s instructions (Biotech, Prague, Czech Republic). The purified RNA was dissolved in 40 µL of diethyl pyrocarbonate (DEPC)-treated water (0.01% DEPC in HPLC water, autoclaved) and stored at −80 °C. The measurement of absorbance at 260 and 280 nm using the NanoDrop ND-1000 UV–VIS Spectrophotometer (Thermo Fisher Scientific, Pardubice, Czech Republic) was used to determine RNA yields and purity. […] Fluorescence data were recorded at the end of each amplification step. Relative expression levels of the target genes were calculated as fold changes in triplicates for each group using the 2^−ΔΔCt method [28] by normalization to the geometric mean of the Ct values of Sdha and Ywhaz, which were used as reference genes.

HMGCR mRNA = experiment: RT-qPCR mRNA expression in dHepaRG cells; type: cell-based, human; settings: single exposure, the highest concentration
Experimental: (§1) The mRNA and protein expression changes were measured after a single administration of ALA and GER. Three concentrations were selected for each compound (non-toxic, non-toxic/slightly toxic and toxic). The cholesterol level of the dHepaRG cells was measured after a multiple exposure of the highest non-toxic concentrations of tested compounds. ATL (30 µM) and GER (100 µM) were administered four times every 24 h. The expression changes of genes and proteins related to cholesterol metabolism were measured in both single and multiple exposure experiments.
All treatments were performed in triplicates and every experiment was performed three times. The cells were washed twice with ice cold phosphate-buffered saline (PBS), scrapped and stored at −80 °C until use. Total RNA from cells was isolated using TriReagent according to the manufacturer’s instructions (Biotech, Prague, Czech Republic). The purified RNA was dissolved in 40 µL of diethyl pyrocarbonate (DEPC)-treated water (0.01% DEPC in HPLC water, autoclaved) and stored at −80 °C. The measurement of absorbance at 260 and 280 nm using the NanoDrop ND-1000 UV–VIS Spectrophotometer (Thermo Fisher Scientific, Pardubice, Czech Republic) was used to determine RNA yields and purity. Subsequently, the RNA (4 µg) was treated with 2 U of DNase I (New England Biolabs, Ipswich, MA, USA) in a final volume of 30 µL for 25 min at 37 °C, 1.5 µL of 0.1 M ethylenediaminetetraacetic acid was added and the DNAse was inactivated by heat (5 min at 75 °C). The solution was diluted to a concentration of 0.1 µg/µL. The DNAse treated RNA was stored at −80 °C until further analyses. […] Fluorescence data were recorded at the end of each amplification step. Relative expression levels of the target genes were calculated as fold changes in triplicates for each group using the 2^−ΔΔCt method by normalization to the geometric mean of the Ct values of Sdha and Ywhaz, which were used as reference genes.

CYP3A4 mRNA = experiment: RT-qPCR mRNA expression in dHepaRG cells; settings: single exposure, also at other than toxic concentrations
Experimental: as §1
All treatments were performed in triplicates and every experiment was performed three times. The cells were washed twice with ice cold phosphate-buffered saline (PBS), scrapped and stored at −80 °C until use. […] The measurement of absorbance at 260 and 280 nm using the NanoDrop ND-1000 UV–VIS Spectrophotometer (Thermo Fisher Scientific, Pardubice, Czech Republic) was used to determine RNA yields and purity. […] Fluorescence data were recorded at the end of each amplification step. Relative expression levels of the target genes were calculated as fold changes in triplicates for each group using the 2^−ΔΔCt method by normalization to the geometric mean of the Ct values of Sdha and Ywhaz, which were used as reference genes.

A1AT mRNA = experiment: RT-qPCR mRNA expression in dHepaRG cells; type: cell-based, human; settings: after 24 h
Experimental: as §4, §5

[3] = dHepaRG cell viability, 24 h single exposure, read-out: IC50 ± SD, MTT
[4] = dHepaRG cell viability, 72 h single exposure, read-out: IC50 ± SD, MTT
[5] = dHepaRG cells, 24-h treatment, read-out: half-maximal inhibitory concentration of cell viability (approximate)

## C=C1C(=O)O[C@@H]2C[C@@]3(C)CCC[C@H](C)C3=C[C@H]12 [ATL, alantolactone]
SCD mRNA
  SCD mRNA level: significantly decreased
dHepaRG cells [1]
  toxicity toward dHepaRG cells compared with cancer cells: significantly lesser toxicity
dHepaRG cells [1]; [3]
  IC50: 58.9 ± 3.5 µM
dHepaRG cells [1]; [4]
  IC50: 57.2 ± 1 µM
dHepaRG cells [1]; dHepaRG cells
  highest non-toxic concentration: 30 µM
  cell viability: concentration-dependent decrease in the cell viability
dHepaRG cells [1]; [5]
  IC50: ~60 µM
HMGCS mRNA; multiple exposure: four applications every 24 h, analyzed 12 h after the last, 30 μM ATL, 100 μM GER, 20 μM LOV
  HMGCS mRNA level: induced
HMGCS mRNA; single exposure, the highest concentration, 6-h exposure
  HMGCS mRNA level: induction
HMGCS mRNA; single exposure, the highest concentration, 12- and 24-h exposure
  HMGCS mRNA level: decreased level
dHepaRG cells [2]
  lowest measured concentration leading to oxidative stress: 20 µM
  ROS production: significant time- and concentration-dependent enhancement of ROS production
CYP19A1 mRNA; 20 and 40 µM, all the studied intervals (6, 12, 24 h)
  CYP19A1 mRNA level: induced
HepG2; ref 9
  IC50: 33 µM
HepG2; ref 35
  IC50: 7 µM
HepG2; ref 36
  IC50: 30 µM
ICAM-1 mRNA; 12-h and 24-h exposure
  ICAM-1 mRNA amount: induced
HMGCR mRNA; 6-h exposure
  HMGCR mRNA level: induction
HMGCR mRNA; 12- and 24-h exposure
  HMGCR mRNA level: decreased level
CYP3A4 mRNA
  CYP3A4 mRNA expression: induced

## CC(C)=C1C/C=C(\C)CC/C=C(\C)CC1=O [GER, germacrone]
A1AT mRNA
  A1AT mRNA expression: inhibited
SCD mRNA
  SCD mRNA level: significantly decreased
dHepaRG cells [1]
  toxicity toward dHepaRG cells compared with cancer cells: similar
dHepaRG cells [1]; [3]
  IC50: 256 ± 5.7 µM
dHepaRG cells [1]; [4]
  IC50: 242 ± 17.4 µM
dHepaRG cells [1]; dHepaRG cells
  highest non-toxic concentration: 100 µM
  cell viability: concentration-dependent decrease in the cell viability
dHepaRG cells [1]; [5]
  IC50: ~250 µM
dHepaRG cells [2]
  lowest measured concentration leading to oxidative stress: 100 µM
  ROS production: significant time- and concentration-dependent enhancement of ROS production
CYP19A1 mRNA; 100 µM, 24-h exposure
  CYP19A1 mRNA level: induced the level by nearly two-fold; also recorded: significantly induced
CYP19A1 mRNA; both higher concentrations, 6- and 12-hour exposure
  CYP19A1 mRNA level: decreased
HepG2; ref 7
  IC50: 170 µM
HepG2; ref 12
  IC50: 160 µM
HepG2; ref 13
  IC50: > 240 µM
ICAM-1 mRNA; 6-h and 12-h exposure
  ICAM-1 mRNA amount: induced
CYP3A4 mRNA
  CYP3A4 mRNA expression: induced

Source: publication PMC7353089, “The Hepatotoxicity of Alantolactone and Germacrone: Their Influence on Cholesterol and Lipid Metabolism in Differentiated HepaRG Cells” (Nutrients, 2020)
